In US10179927B2, “Electrochemical detection of microorganisms” (priority 2014, dated 2019):

Legend:
[1] = tested on: Enterococcus faecalis; assay: Suitability of colorimetric detection compounds for bioelectrochemical detection of Enterococcus faecalis; type: cell-based; conditions: compound used for colorimetric detection of Enterococcus faecalis
Excerpt: Bioelectroanalytical techniques are emerging as ways to enumerate and scrutinize microbial systems. But there is still need in the art for technologies specifically designed for bioelectroanalytical detection of FIB. […] The latter, in particular, makes them unsuitable in self-powering systems.

[2] = tested on: A. hydrophila; assay: Electrochemical detection of A. hydrophila in ECs; type: cell-based, Aeromonas hydrophila; conditions: both 30° C. and 37° C. (FIG. 5)
Experimental: (§1) Escherichia coli strain BL21 was selected to represent a FIB of human origin that contains the uidA and lacZ genes, i.e. a FC, whereas Aeromonas hydrophila (DSM 6173) is an environmental organism that has the lacZ gene but which is not considered a coliform. All organisms were cultured aerobically for 20 h. E. coli was grown in Luria Bertani (Lennox) medium at 37° C., and A. hydrophile at 30° C. in tryptone soy broth (TSB) in a shaking incubator.
(§2) Conical ECs with a working volume of 10 mL were used with a customized Teflon cap to accommodate a three electrode configuration along with gas fittings to maintain a moist anaerobic atmosphere. Carbon felt working electrodes (1×1×0.318 cm) (VWR, Singapore) were kept for 24 h in 1 M HCl and stored in deionized (DI) water before use. The electrodes were connected to titanium wire (0.25 mmØ, Sigma-Aldrich) using a nylon nut and bolt. […]
(§3) Following reporter supplement and inoculation with the test microorganism, the ECs were connected to a multichannel potentiostat (Biologic, France) and cyclic voltammetry (CV) and differential pulse voltammetry (DPV) were performed immediately. Data acquisition was recorded by EC-Lab software (Biologic, France). […] A detection event was calculated as 4 times the standard deviation of the baseline and detection times are expressed as the mean of triplicate analyses unless stated otherwise. […]

[3] = tested on: mixed culture of E. coli and A. hydrophila; assay: Detection time of mixed culture of A. hydrophila and E. coli in ECs; type: cell-based, Escherichia coli; Aeromonas hydrophila; conditions: 30° C., E. coli constant 5×10^5 CFU mL^−1
Experimental: as §1
(§4) The resulting overnight cultures were diluted in sterile modified M9 medium (Na2HPO4.7H2O (126 mM); KH2PO4 (110 mM); NH4Cl (93 mM); NaCl (42 mM); 1 mL/L vitamin stock solution; tryptone 12.5 g/L; HEPES: 6 g/L; and macro nutrients). The carbon source was either D-galacturonic acid or D-glucuronic acid (3.75 g/L) to achieve a final inoculum density in the range of 1.0×10^0, 5.0×10^0, 5.0×10^1, 5.0×10^2, 5.0×10^3, 5.0×10^4, and 5.0×10^5 CFU mL^−1 in both electrochemical system and the bioelectrochemical system.
as §2, with “bolt. A coiled titanium wire was used as counter electrode and an Ag/AgCl reference electrode (78 mm, 6 mm Outer Ø, Biologic, France) was connected using a 1 M KCl in 1.5% agar salt bridge.” for “bolt.”
as §3

[4] = tested on: Escherichia coli strain BL21; assay: Chronoamperometric detection of E. coli with electrochemically active reporters in three-electrode electrochemical systems (ECs); type: cell-based; conditions: for Detection time (±std dev): chronoamperometry in ECs, reporter 50 μM
Experimental: Resorufin (TCI-Europe), 2-hydroxy-1,4-naphthoquinone (2H14NQ) (TCI-Europe), 5-hydroxy-1,4-naphthoquinone (5H14NQ) (TCI-Europe) and 5,8-dihydroxy-1,4-naphthoquinone (58H14NQ) (Sigma-Aldrich) were obtained commercially and added to M9 medium in their unconjugated form to achieve a working concentration of 50 μM. Resorufin glycoconjugates (resorufin-β-d-galactopyranoside and resorufin-β-d-glucopyranoside) were obtained commercially (Sigma-Aldrich), whereas 2-hydroxy-1,4-naphthoquinone-β-d-galactopyranoside (2H14NQGal) and 2-hydroxy-1,4-naphthoquinone-β-d-glucopyranoside (2H14NQG1u) were specifically synthesized by Sussex Research Ltd. All reporters were added to a final concentration of 50 μM. Stock concentrations (1.0×10^−3 M) of 2H14NQ and 5H14NQ were prepared by first dissolving in 10 μL of 2 M NaOH and then making up to volume in Type II water (Veolia) whereas 58H14NQ (1.0×10^−3 M) was prepared in 1:1 DMSO:Type II water aliquots. Both stock solutions were stored at −20° C. until needed. Conjugated reporters were maintained as 1 mM stock solutions in Type II water and stored at 5° C.
as §1, §4
Conical ECs with a working volume of 10 mL were used with a customized Teflon cap to accommodate a three electrode configuration along with gas fittings to maintain a moist anaerobic atmosphere. Carbon felt working electrodes (1×1×0.318 cm) (VWR, Singapore) were kept for 24 h in 1 M HCl and stored in deionized (DI) water before use. The electrodes were connected to titanium wire (0.25 mmØ, Sigma-Aldrich) using a nylon nut and bolt. A coiled titanium wire was used as counter electrode and an Ag/AgCl reference electrode (78 mm, 6 mm Outer Ø, Biologic, France) was connected using a 1 M KCl in 1.5% agar salt bridge. The assembled cell was then filled with 1 M KCl solution ending in a 4 mm glass frit (CoralPor™, Biologic, France). The entire assembly was then autoclaved (121° C. for 15 min). Nine mL of degassed modified M9 medium was added to the ECs and supplemented with a reporter to a final concentration of 5.0×10^−5 M in 10 mL working volume. The ECs were then inoculated with the targeted test organism to achieve a final working volume of 10 mL. The headspace was flushed continuously with sterile humidified N2. The ECs were operated at 30° C., 37° C. or 44.5° C. Stirring was maintained continuously with a magnetic stirrer in the dark to prevent photo-bleaching of the light sensitive mediators.
Following reporter supplement and inoculation with the test microorganism, the ECs were connected to a multichannel potentiostat (Biologic, France) and cyclic voltammetry (CV) and differential pulse voltammetry (DPV) were performed immediately. Data acquisition was recorded by EC-Lab software (Biologic, France). Chronoamperometry (CA) was applied for up to 24 h to detect redox active reporter moieties. A detection event was calculated as 4 times the standard deviation of the baseline and detection times are expressed as the mean of triplicate analyses unless stated otherwise. […]

| Structure (SMILES) | Suitability for bioelectrochemical detection [1] | Electrochemical detection of A. hydrophila [2] | Detection time, mixed culture ([3]; A. hydrophila 5×10^2 CFU mL^−1 (FIG. 5)) [min] | Detection time, mixed culture ([3]; A. hydrophila 5×10^5 CFU mL^−1 (FIG. 5)) [min] | Detection time (±std dev) ([4]; 30° C., inoculum 5 × 10^2 CFU mL^−1) | Detection time (±std dev) ([4]; 30° C., inoculum 5 × 10^3 CFU mL^−1) | Detection time (±std dev) ([4]; 30° C., inoculum 5 × 10^4 CFU mL^−1) | Detection time (±std dev) ([4]; 30° C., inoculum 5 × 10^5 CFU mL^−1) | Detection times for E. coli ([4]; 30° C., inoculum sizes 5×10^5-5×10^2) [min] | Detection time (±std dev) ([4]; 37° C., inoculum 5 × 10^2 CFU mL^−1) | Detection time (±std dev) ([4]; 37° C., inoculum 5 × 10^3 CFU mL^−1) | Detection time (±std dev) ([4]; 37° C., inoculum 5 × 10^4 CFU mL^−1) | Detection time (±std dev) ([4]; 37° C., inoculum 5 × 10^5 CFU mL^−1) | Detection time ([4]; inoculum size 5×10^3 CFU mL^−1, ECs) [h] | Detection of E. coli achieved in (time) ([4]; inoculum sizes between 5×10^5 and 5×10^3 CFU mL^−1, ECs, triplicate) [h] |
| --- | --- | --- | --- | --- | --- | --- | --- | --- | --- | --- | --- | --- | --- | --- | --- |
| Cc1cc(=O)oc2cc(OC3O[C@H](CO)[C@@H](O)[C@H](O)[C@H]3O)ccc12 (stereo partly drawn) [4-methylumbeliferone-glucoside] | not well suited for bioelectrochemical detection | – | – | – | – | – | – | – | – | – | – | – | – | – | – |
| O=c1ccc2nc3ccc(O[C@@H]4O[C@H](CO)[C@H](O)[C@H](O)[C@H]4O)cc3oc-2c1 [ResGal, resorufin-β-d-galactopyranoside] | – | could be detected electrochemically | ~450 | ~280 | 521(±121) minutes | 372(±82) minutes | 218(±31) minutes | 150(±56) minutes | 132 to 521 | 734(±188) minutes | 477(±23) minutes | 309(±55) minutes | 260 (±55) minutes | ~8 | 4 to 10 |
